For orientation: Kd means the equilibrium constant for the complex coming apart.

One data set concerns HIV-1 (IIIB). The data set is described as follows: SEVI mediated enhancement of HIV infection, CEM 5.25 cells (luciferase). It is filed as cell-based. To be noted: 25 μg/mL SEVI fibrils; compound 5.5, 11 and 16.5 μg/mL; 72 hrs. Here is the method:
CEM 5.25 cells were exposed to infectious HIV-1 (IIIB) for 2 hours in the absence or presence (25 μg/mL) of SEVI fibrils; BTA-EG4 (FIG. 5A) and EG6 (FIG. 5B) was added at concentrations of 5.5, 11 and 16.5 μg/mL.

The subject of data set [1] is HIV-1 IIIB. Description: Semen mediated enhancement of HIV infection, CEM 5.25 cells (luciferase). It is filed as cell-based. To be noted: 50% semen, diluted 15 fold; 48 hours. Here is the method:
After 10 minutes these stocks were diluted 15 fold into CEM 5.25 cells.
After 10 minutes, the stocks were diluted 15 fold and incubated with CEM 5.25 cells. […] After 90 minutes cells were washed to remove any unbound virus and bound virions were detected using a p24 ELISA.

The subject of data set [2] is HIV-1 IIIB. The data set is described as follows: Virus binding assay, HIV-1 IIIB virions to Jurkat cells (p24). To be noted: for SEVI-enhanced binding of HIV-1 IIIB virions to Jurkat cells (p24 ELISA): SEVI-pretreated virions, 90 min, increasing concentrations. It is filed as cell-based. The method, then: After 90 minutes, cells were washed to remove any unbound virus and bound virions were detected using a p24 ELISA. […]
After 90 min, cells were washed to remove any unbound virus, and bound virions were detected using an HIV-1 p24 antigen capture assay (Advanced Bioscience Laboratory). […]
After 90 min, cells were washed to remove any unbound virus, and bound virions were detected using an HIV-1 p24 antigen capture assay (Advanced Bioscience Laboratory, Rockville, Md.).
(ELISA stands for enzyme-linked immunosorbent assay.)

Data set [3] concerns cervical epithelial cell lines SiHa, A2En (endocervical), and 3EC1 (ectocervical). The data set is described as follows: Viability of cervical cell lines (resazurin, AlamarBlue). In kind it is cell-based, human. To be noted: up to 10 times the IC50 (66 μg/ml). From the text: Loss of this protective layer leads to an increased ability for HIV-1 to cross the mucosal barrier, and inflammatory effects drive recruitment of HIV-1 target cells, further decreasing the natural barriers against successful transmission of HIV. […] To do this, the following cell lines were used: 1) SiHa cells, a cervical carcinoma cell line; 2) A2En cells, a primary cell-derived line from the endocervical […]; and 3) 3EC1 cells, a primary cell-derived line from the ectocervical […]. […] Viability was assessed at 24 h by using the resazurin cytotoxicity assay. Resazurin cytotoxicity data were confirmed by trypan blue counts of viable cells.
(The colour change of resazurin is a common sign of viable cells or microbes.)

Data set [4] deals with A2En, 3EC1, and SiHa Cells. Description: Cytokine and chemokine induction in cervical cell lines (ELISA). To be noted: 6 h; varying concentrations up to 66 μg/ml.
Description: Cytokine and chemokine production was assessed at 12 h by ELISA (R&D systems). Cells were also treated with 0.1% nonoxynol-9 as a positive control for cytotoxicity and with 0.1 μg/ml FSL1, a synthetic diacylated lipoprotein derived from Mycoplasma salivarium (InvivoGen, San Diego, Calif.), as a positive control for chemokine production.
Nonoxynol-9 (non-9), a spermicide, was used as a positive control. […] Cell culture supernatants were then assessed for the presence of the inflammatory cytokines and chemokines Mip-3α (FIG. 5B), IL-8 (FIG. 16C), IL-1β, and TNF-α.
Another data set has as its target T1, SEVI fibrils (Homo sapiens, UniProt P15309).
T1 sequence (P15309 248-286 limits assumed): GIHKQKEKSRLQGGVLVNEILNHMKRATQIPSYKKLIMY
Description: Fluorescence polarization, displacement of FITC-heparin from SEVI fibrils. In kind it is binding. Further details: PAP248-286 and biotinylated PAP248-286, in which a biotin was added to the amino terminus of the peptide, was synthesized; made in house; host or cells: chemical peptide synthesis; fibrils formed by agitation in PBS at 37 °C for 72 h. Conditions: 16 μg/ml FITC-heparin; 1 h room temperature. Here is the method: Samples were incubated 1 h at room temperature and read on a PerkinElmer Life Sciences Envision 2012 multilabel reader (PerkinElmer, Waltham, Mass.) at an excitation λ=480 nm and emission λ=535 nm. The horizontal and vertical polarized fluorescence intensities were recorded, and the calculated polarization was determined in millipolarization units.
In order to find other small molecules that bind SEVI, a fluorescence polarizing screen was developed. Polarized light passed over a small unbound molecule with a fluorescent moiety will produce rapid rotation and will result in fluorescence that is de-polarized. Polarized light passed over SEVI bound to a small molecule with a fluorescent moiety will result in fluorescence that is polarized. […] Samples were incubated at excitation of λ=480 and emission λ=535 (FIG. 8, left graph). […] Samples were incubated for 1 hour at room temperature and polarized fluorescence was measured.
ThT is able to intercalate into the generic β-sheet structure of amyloid fibrils. […] This molecule binds to Aβ fibrils and interferes with the ability of Aβ-binding proteins to interact with the fibrils.

In data set [5] the target is aggregated Alzheimer disease-related Aβ(1-42) peptides (Homo sapiens, UniProt P05067). Conditions: read-out: Kd for binding to aggregated Aβ(1-42) peptides; same fluorescence binding assay. Here is the method: These incubations were performed in duplicate runs and allowed to equilibrate overnight at room temperature. After equilibration, each solution was centrifuged at 16,000×g for 30 min. The supernatants were separated from the pelleted fibrils, and 220 μl of fresh PBS was added to resuspend the pellets. […] Error bars represent standard deviations from the mean. […] The data were processed using Origin 7.0 (MicroCal Software, Inc., Northampton, Mass.).

A further data set deals with Jurkat cells. Description: Flow cytometry, binding of SEVI-biotin fibrils to Jurkat cell surface (SA-FITC). In kind it is cell-based, human. To be noted: for MFI (mean fluorescent intensity) / SA-FITC+ (cells with bound fibrils): SEVI-biotin 1 h. The method, then: Cells were incubated for 1 h at 37° C., washed, and stained for 1 h with a covalent conjugate of streptavidin and fluorescein isothiocyanate (SA-FITC). Cells were washed and run on an Accuri C6 Flow Cytometer (Accuri Cytometers, Ann Arbor, Mich.). Data were analyzed using FlowJo (TreeStar Inc, Ashland, Oreg.).
After that time, fibrillar structures were examined by ThT fluorescence. ThT changes in fluorescence intensity when intercalated into the β-sheet structure common to amyloid fibrils; therefore, ThT fluorescence serves as a surrogate measure for fibrillar structure of SEVI and for the stability of SEVI fibrils. […] Binding of the fibrils to the cell surface was detected using SA-FITC. […] Surface-bound fibrils were detected with SA-FITC and measured by flow cytometry. Results are shown as percentage of cells with bound fibrils (SA-FITC+) as well as mean fluorescent intensity (MFI).

Data set [6] has as its system HIV-1ADA. The method, then: Treated virions were then added to 5×10^4 CEM-M7 cells/well in 96-well flat-bottomed tissue culture plates. After 2 h, the medium […] were replaced. Infection was assayed after 48 h by quantifying luciferase expression using the Promega Dual-Luciferase assay and a Beckman Coulter DTX880 plate reader.
The test system of the next data set is HIV-1BaL. Here is the method: Cells were washed at 3 h, and infection was analyzed at day 4 using the HIV-1 p24 antigen capture assay (Advanced Bioscience Laboratory).
In data set [7] the test system is HIV-1ADA. To be noted: individual semen sample, 50%; R5 virus. Here is the method: (§1) After 15 min, the semen and virus mixture was diluted 1:15 into 5×10^4 CEM-M7 cells/well in a 96-well plate. Cells were washed after 1 h, and infection was assayed at 48 h as above.
(§2) As human semen has been reported to be toxic to cultured cells, a protocol that minimized this toxicity was used. Pooled human semen was added to HIV-1IIIB virus in a 1:1 dilution. After 15 min, this solution was added to cells at a 1:15 dilution for a final concentration of 3.3%.

A further data set deals with HIV-1IIIB. Conditions: pooled human semen 1:1, then 1:15; 5.5, 11, 22.5 μg/ml. Here is the method: as §1, §2
The test system of the next data set is A2En cells. To be noted: 15 μg/ml SEVI; 5.5, 11, 22.5 μg/ml; 24 h. The method, then:
Supernatant was collected at 6 and 24 h, and the production of the chemokines IL-8 and Mip-3α was measured by ELISA (R&D Systems). […] After 6 h, supernatants were collected, and the production of the chemokines IL-8 and Mip-3α was measured by ELISA (R&D systems, Minneapolis, Minn.).
HIV stimulates the release of MIP-3 and IL-8 from vaginal and cervical epithelial cells.

Data set [8] concerns HIV-1ADA. To be noted: 22.5 μg/ml BTA-EG6.
Description: After 90 min, cells were washed to remove any unbound virus, and bound virions were detected using a p24 ELISA. […] At 24 h, supernatants were collected and analyzed by ELISA for the presence of IL-8.
Surface-bound virions were then measured by p24 ELISA after washing off unbound virus. […] Additionally, this experiment was performed using A2En cells, a primary cell-derived endocervical cell line.
The mark [9] stands for this setting: heparin (100 μg/ml) positive control.

“Also recorded” adds a separate entry of the source.

Chain of aggregated Alzheimer disease-related Aβ(1-42) peptides (P05067 672-713): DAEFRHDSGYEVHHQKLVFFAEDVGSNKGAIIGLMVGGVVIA

With `Cc1ccc2nc(-c3ccc(NCCOCCOCCOCCO)cc3)sc2c1` [BTA-EG4], the “SEVI mediated enhancement of HIV infection (luciferase activity)” value in the data set on HIV-1 (IIIB) was “decreasing levels of luciferase activity; also recorded: inhibit SEVI mediated enhancement of HIV infection”. Also, the “semen mediated enhancement of HIV infection (luciferase activity)” value in the data set with HIV-1 IIIB [1] is “decrease in luciferase activity; also recorded: inhibit semen mediated enhancement of HIV Infection”. The “SEVI-enhanced binding of HIV-1 IIIB virions to Jurkat cells (p24 ELISA)” value in the data set on HIV-1 IIIB [2] is given as “decrease in HIV-1 binding to the cells; also recorded: decrease SEVI enhanced binding of HIV to target cells”. Moreover, the cell viability entry in [3] is reported as “did not affect the cell viability; also recorded: not toxic to cervical epithelial Cells”. Moreover, the “production of inflammatory cytokines and chemokines (Mip-3α, IL-8, IL-1β, TNF-α)” value in data set [4] is “do not induce cytokine production in cervical epithelial cells”. For the same compound, the “binding to SEVI fibrils (displacement of FITC-heparin, polarized fluorescence)” value (shortened to “binding to SEVI fibrils”) at SEVI fibrils is “capable of binding SEVI; also recorded: detects binding”.

Consider `Cc1ccc2nc(-c3ccc(NCCOCCOCCOCCOCCOCCO)cc3)sc2c1` [BTA-EG6], for which, in the data set with HIV-1 (IIIB), the “SEVI mediated enhancement of HIV infection (luciferase activity)” value was “decreasing levels of luciferase activity; also recorded: inhibit SEVI mediated enhancement of HIV infection”. Further, the “semen mediated enhancement of HIV infection (luciferase activity)” value in the data set on HIV-1 IIIB [1] is “decrease in luciferase activity; also recorded: inhibit semen mediated enhancement of HIV Infection”. The “binding of HIV virions to the cell surface in the absence of SEVI” value with HIV-1 IIIB [2] (Jurkat cells, no SEVI) is on record as “no effect on the binding of HIV virions to the cell surface; also recorded: no effect on the binding of HIV-1 virions alone to cells”. Moreover, the “SEVI-enhanced binding of HIV-1 IIIB virions to Jurkat cells (p24 ELISA)” value is on record as “decrease in HIV-1 binding to the cells; also recorded: decrease SEVI enhanced binding of HIV to target cells; also recorded: efficiently inhibited SEVI-mediated enhancement of HIV-1IIIB attachment to Jurkat cells” in the data set with HIV-1 IIIB [2] and “efficiently abrogated” in the data set with HIV-1 IIIB [2] (listed as BTAEG6). In addition, the Kd in [5] is 111 ± 32 nM. Besides, the results for the “MFI (mean fluorescent intensity)” value in the data set on Jurkat cells (BTA-EG6 high (27 μg/ml)) and with Jurkat cells (BTA-EG6 low (5.5 μg/ml)) were 38.7 and 95.3, respectively. In addition, the results for the “SA-FITC+ (cells with bound fibrils)” value in the data set on Jurkat cells (BTA-EG6 high (27 μg/ml)) and with Jurkat cells (BTA-EG6 low (5.5 μg/ml)) were 21.2% and 36.6%, respectively. Moreover, in the data set on Jurkat cells (Jurkat T cells, increasing concentrations), the “interaction of SEVI fibrils with the cell surface” value is “inhibited the ability of SEVI fibrils to interact with and bind the cell surface; also recorded: inhibits the interaction of SEVI fibrils with the cell surface”. Moreover, the “SEVI-mediated enhancement of HIV-1 infection (luciferase)” value with HIV-1ADA [6] (15 μg/ml SEVI, R5 strain) is “significant dose-dependent inhibition”. Besides, in the data set with HIV-1ADA [6] (absence of SEVI), the “infectivity of HIV-1ADA in the absence of SEVI” value was “No effect on the infectivity of HIV-1ADA”. For the same compound, the “SEVI-mediated enhancement of HIV-1 infection in PBMCs (p24)” value with HIV-1BaL (15 μg/ml SEVI, day 4) is reported as “able to inhibit SEVI-mediated enhancement of HIV-1 infection in PBMCs”. The “infectivity of HIV-1BaL in PBMCs in the absence of SEVI” value with HIV-1BaL (absence of SEVI) is given as “no effect on the infectivity of HIV-1BaL”. Besides, the “semen-mediated enhancement of HIV-1 infection (luciferase)” value is “this effect extended to infection with an R5 virus” in the data set on HIV-1ADA [7] and “efficiently inhibited the semen mediated enhancement of HIV-1 infection; also recorded: inhibits semen-mediated enhancement of HIV-1 infectivity” with HIV-1IIIB. Also, the “IL-8 release from cells treated with virus and SEVI” value in the data set with A2En cells is recorded as “able to inhibit this release”. Further, the cell viability result in data set [3] is “did not affect the cell viability; also recorded: did not have any effects on cell viability; also recorded: not toxic to cervical cells”; in [3] (listed as EG6), “not toxic to cervical epithelial Cells”. The “SEVI-enhanced binding of virions to A2En cells (p24)” value with HIV-1ADA [8] is “inhibited”. Moreover, the “production of inflammatory cytokines and chemokines (Mip-3α, IL-8, IL-1β, TNF-α)” value in data set [4] is “did not lead to the release of any of these cytokines or chemokines; also recorded: do not induce cytokine production in cervical epithelial cells; also recorded: does not induce inflammatory chemokine production in cervical epithelial cells”. Besides, at SEVI fibrils, the “binding to SEVI fibrils” value was “capable of binding SEVI; also recorded: able to displace fluorescent heparin from the SEVI fibrils in a dose-dependent fashion; also recorded: detects binding; also recorded: binds SEVI fibrils”.

On to heparin [reference compound], for which, in the data set with Jurkat cells (setting [9]), the “MFI (mean fluorescent intensity)” value came out at 376 and the “SA-FITC+ (cells with bound fibrils)” value is 31.7%. In addition, the “binding to SEVI fibrils” value at SEVI fibrils is “polarization decreased”.

The values above are taken from US20130157924A1, “REDUCING TRANSMISSION OF SEXUALLY TRANSMITTED INFECTIONS” (THE REGENTS OF THE UNIVERSITY OF CALIFORNIA, priority 2010, published 2013).
